Assay results as given in patent publication US20090264382A1, “Methods for Treating Hematopoietic Neoplasms” (priority 2007, published 2009).

Tests used:
VCAM-1 = assay: IL-1β-induced VCAM-1 expression in HUVECs, flow cytometry; assay type: cell-based, human; details: 1 to 5 nM
Protocol: Human umbilical vein endothelial cells (HUVECs) were activated with IL-1β (5 ng/ml) for 24 hours with CA4P added at concentrations from 0 to 5 nM. VCAM-1 expression was determined by flow cytometry with phytoerythrin-conjugated anti-CD106 (VCAM-1) mAb.

[1] = tested on: HL60 and U937 AML cells on HUVECs; assay: Leukemic cell adhesion to and co-culture with HUVECs; assay type: cell-based, human
Protocol: To assess leukemic cell adhesion, 1×10^5 GFP+HL60 or U937 cells in X-vivo/5% FBS were added per well. The percentage of GFP++adherent cells was quantified by fluorescent microscopy. To compare the resistance of vascular-adherent to non-adherent leukemic cells in co-culture, leukemic cells were seeded on either IL-1β-activated or non-activated HUVECs, with addition of CA4P. After 48 hours, GFP++leukemic cells were removed from the wells by trypsinization and quantified by fluorescence microscopy and flow cytometry. […] The number of adherent cells is expressed as a percentage of total leukemic cells and representative of three independent experiments performed in triplicate SEM (*p<0.05 as compared to CA4P-untreated control).
Survival of GFP+U937 (E) and HL60 (F) leukemic cells co-cultured with HUVECs is expressed as a percentage of total cells. Adherent (i.e. attached to IL-1β activated HUVECs) and non-adherent leukemic cells (i.e. cultured with non-activated HUVECs) are depicted. Results are representative of three independent experiments performed in triplicate±SEM (*p<0.05).

AML cell lines = assay: Annexin-V/propidium iodide apoptosis by flow cytometry; assay type: cell-based, human; details: 48 hours
Protocol: CA4P-treated AML cells were subjected to Annexin-V/propidium iodide (PI) staining and quantification by flow cytometry. Combretastatin A-4 phosphate (CA4P) induces caspase-independent apoptosis in leukemic cells. CA4P induces apoptosis of leukemic cells. Leukemic cells were treated with or without CA4P for 48 hours and the percentage of apoptotic leukemic cells was determined by Annexin V and propidium iodide staining using flow cytometry. Results are representative of three independent experiments. […] In the majority of AML cell lines tested, CA4P at a concentration of 5 nM induced phosphatidylserine externalization (Annexin V+) in more than 50% of the leukemic cells.

[2] = Bone marrow toxicity, serial complete blood counts; assay type: in vivo, CD1 mice; details: 25 mg/kg subcutaneously every other day for 4 weeks
Protocol: Eight week-old sex matched CD1 mice (Jackson Laboratory, Bar Harbor, Me.) were treated with CA4P at 25 mg/kg subcutaneously every other day for 4 weeks.

GFP-labeled U937 cells = assay: Systemic in vivo leukemia model, GFP+U937; design: species or system NOD-SCID mice; details: after 30 days, data not shown
Protocol: NOD-SCID mice were intravenously inoculated with 1×10^7 GFP+HL60 cells. The HL60 cells were labeled with green fluorescent protein (GFP) by a lentiviral construct, and inoculated systemically through tail vein injection. Three days after inoculation, mice were divided into 2 groups of five mice. One group was treated every other day with PBS (control) and the second group received 25 mg/kg CA4P every other day. Each experiment was done three times. At day 30 after the start of the experiment, two mice from each group were killed, and their organs (spleen, liver and lung), peripheral blood and marrow of surgically removed femurs were collected, and analyzed for the presence of human leukemic cells by flow cytometry. Single cell suspension was stained using phytoerythrin-labeled anti-human CD45 mAb (Pharmingen), and the percentage of double positive human CD45-PE and GFP cells was determined flow cytometer. The extent of GFP+HL60 cell infiltration was assessed by fluorescence microscopy. In a second set of experiments, GFP+U937 cells were used instead of HL60 cells, and the animals sacrificed after 30 days. […]

[3] = tested on: AML cells / panel of leukemic cell lines; assay: Leukemic cell proliferation, viable cell count by trypan blue exclusion; assay type: cell-based, human; details: 48 hours
Protocol: Leukemic cells were seeded at 1×10^5 cells/ml in X-vivo medium (Bio-Whittaker, MA) with 5% FBS and CA4P or pre-incubated with the PARP-inhibitor DPQ or caspase-inhibitors Z-VAD-fmk and Q-VD-OPh (R&D, Minneapolis, Minn.). A panel of leukemic cells was incubated with CA4P at the different concentrations indicated in FIG. 1, and viable cells were counted after 48 hours using trypan blue exclusion. Results of four experiments in duplicate are expressed as the ratio of the percentage of viable cells/control±SEM (*p<0.05 as compared with CA4P-untreated cells; n=4). After incubation for 48 hours, cells were counted using trypan-blue exclusion. CA4P at concentrations as low as 1 nM initiated cell death of non-adherent, anchorage-independent AML cells in vitro, with the IC50 ranging from 2.5 to 5 nM (FIG. 1). The majority of the AML cell lines tested was sensitive to CA4P at a concentration of 2.5 nM or less. All leukemic cell lines, as well as a recently established primary leukemic cell line (R81) 16 were sensitive at low doses of CA4P (<10 nM).

GFP+HL60 cells = assay: Systemic in vivo leukemia model, GFP+HL60; design: species or system NOD-SCID mice
Protocol: NOD-SCID mice were intravenously inoculated with 1×10^7 GFP+HL60 cells. The HL60 cells were labeled with green fluorescent protein (GFP) by a lentiviral construct, and inoculated systemically through tail vein injection. Three days after inoculation, mice were divided into 2 groups of five mice. One group was treated every other day with PBS (control) and the second group received 25 mg/kg CA4P every other day. Each experiment was done three times. At day 30 after the start of the experiment, two mice from each group were killed, and their organs (spleen, liver and lung), peripheral blood and marrow of surgically removed femurs were collected, and analyzed for the presence of human leukemic cells by flow cytometry. Single cell suspension was stained using phytoerythrin-labeled anti-human CD45 mAb (Pharmingen), and the percentage of double positive human CD45-PE and GFP cells was determined flow cytometer. The extent of GFP+HL60 cell infiltration was assessed by fluorescence microscopy. In a second set of experiments, GFP+U937 cells were used instead of HL60 cells, and the animals sacrificed after 30 days.
In the untreated control group, the mice survived for 32-40 days only and succumbed to systemic spread of leukemia. […] This increase in survival was accompanied by a decrease in circulating leukemic cells observed 30 days after leukemic cell injection, as assessed by flow cytometry determination of double positive cells for human CD45 and GFP (0.9% for control vs. 0.2% for CA4P treatment, p<0.05, n=5) (FIG. 12). Thirty days after xenotransplantation of GFP+HL60 cell injection, the presence of GFP+HL60 cells in the peripheral blood and the different tissues of the mice was assessed by quantification of double positive GFP and human CD45 cells by flow cytometry. […] In contrast, control mice had massive leukemic infiltrates in the spleen (5.2%), liver (2.6%) and lung (3.5%) (FIG. 12).

[4] = day 30, 25 mg/kg every other day

In the case of `COc1ccc(/C=C\c2cc(OC)c(OC)c(OC)c2)cc1OP(=O)(O)O` [CA4P, combretastatin A-4 phosphate], the “apoptosis of HUVECs” value (VCAM-1) is reported as “without inducing apoptosis”, the “VCAM-1 expression on IL-1β-activated HUVECs” value (VCAM-1; 24 hours, IL-1β 5 ng/ml) is reported as “significantly reduced expression of VCAM-1” and the “attachment of HL60 and U937 AML cells to HUVECs” value ([1]; in vitro) is reported as “decreased attachment”. For the same compound, the “sensitivity of leukemic cells to CA4P with decreased adhesion to HUVECs” value ([1]; non-adherent vs adherent to IL-1β activated HUVECs, 48 hours) was “more sensitive”, the “leukemic cells with phosphatidylserine externalization (Annexin V+)” value (AML cell lines; 5 nM, majority of AML cell lines tested) was “more than 50%” and the “PI+, Annexin V(−) cells (necrotic)” value (AML cell lines) was “Only a small number”. The “WBC and absolute neutrophil count” value [2] was “slight decrease”, the “GFP-positive U937 leukemic cells in the bone marrow” value (GFP-labeled U937 cells) was “less than 0.05%” and the “GFP-positive U937 leukemic cells in the liver” value (GFP-labeled U937 cells) was “less than 0.05%”. The “concentration at which all leukemic cell lines and primary line R81 were sensitive” value [3] was under 10 nM, the “concentration at which the majority of the AML cell lines tested was sensitive” value [3] was at most 2.5 nM and the “lowest concentration that initiated cell death of AML cells” value ([3]; in vitro) was 1 nM. The IC50 ([3]; Homo sapiens, trypan blue exclusion, range over cell lines, read-out: IC50, cell death of non-adherent, anchorage-independent AML cells) was 2.5 to 5 nM, the “survival of intravenously xenotransplanted mice” value (GFP+HL60 cells; 25 mg/kg every other day) was “significantly increased survival” and the “circulating leukemic cells (human CD45 and GFP double positive) in peripheral blood” value (GFP+HL60 cells; [4]) was 0.2%. For the same compound, the “engraftment of leukemic cells in the bone marrow” value (GFP+HL60 cells; [4]) was “completely eradicated”, the “human CD45 and GFP positive cells in the liver” value (GFP+HL60 cells; [4]) was 0.1% and the “infiltration of GFP+HL60 cells in the lung” value (GFP+HL60 cells; [4]) was “no evidence of infiltration”. For the same compound, the “infiltration of GFP+HL60 cells in the spleen” value (GFP+HL60 cells; [4]) was “no evidence of infiltration”.
